From PubChem BioAssay (NCI)
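96-well plates; 48 h exposure; 5 concentrations. Endpoints by linear interpolation between flanking doses. Not reached: highest tested concentration assigned. TGI denotes the concentration required for complete inhibition of growth.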

Assays:
Assay in all cases: DTP human tumour cell line panel, 48 h
SN12C renal = test system: SN12C renal
SW-620 colon = test system: SW-620 colon
RPMI-8226 leukemia = test system: RPMI-8226 leukemia
SK-MEL-2 melanoma = test system: SK-MEL-2 melanoma
NCI-H23 lung = test system: NCI-H23 lung
BT-549 breast = test system: BT-549 breast
HS 578T breast = test system: HS 578T breast
MDA-MB-435 = test system: MDA-MB-435
COLO 205 colon = test system: COLO 205 colon
SK-OV-3 ovarian = test system: SK-OV-3 ovarian
SK-MEL-5 melanoma = test system: SK-MEL-5 melanoma
HCT-15 colon = test system: HCT-15 colon
SF-539 CNS = test system: SF-539 CNS
LOX IMVI melanoma = test system: LOX IMVI melanoma
RXF 393 renal = test system: RXF 393 renal
KM12 colon = test system: KM12 colon
SF-268 CNS = test system: SF-268 CNS
DU-145 prostate = test system: DU-145 prostate
NCI-H226 lung = test system: NCI-H226 lung
OVCAR-3 ovarian = test system: OVCAR-3 ovarian

For O=C(/C=C/c1ccccc1)c1cc(C(=O)/C=C/c2ccccc2)c(O)cc1O, the TGI (SN12C renal) was > 100 µM, the TGI (SW-620 colon) was > 100 µM and the TGI (RPMI-8226 leukemia) was > 100 µM. The TGI (SK-MEL-2 melanoma) was > 100 µM, the TGI (NCI-H23 lung) was > 100 µM and the TGI (BT-549 breast) was > 100 µM. The TGI (HS 578T breast) was 83.7 µM, the TGI (MDA-MB-435) was > 100 µM and the TGI (COLO 205 colon) was > 100 µM. For the same molecule, the TGI (SK-OV-3 ovarian) was > 100 µM, the TGI (SK-MEL-5 melanoma) was > 100 µM and the TGI (HCT-15 colon) was > 100 µM. For the same molecule, the TGI (SF-539 CNS) was > 100 µM and the TGI (LOX IMVI melanoma) was > 100 µM.
C=C1CCC2[C@](C)(CCC[C@]2(C)C(=O)O)[C@@H]1CCc1ccoc1 (stereo partly drawn) was tested, and the TGI (RXF 393 renal) was > 100 µM, the TGI (SN12C renal) was > 100 µM and the TGI (SW-620 colon) was > 100 µM. The TGI (RPMI-8226 leukemia) was > 100 µM, the TGI (SK-MEL-2 melanoma) was 85 µM and the TGI (NCI-H23 lung) was 50.7 µM. For the same molecule, the TGI (KM12 colon) was 74.9 µM, the TGI (HS 578T breast) was 80.3 µM and the TGI (SF-268 CNS) was > 100 µM. For the same molecule, the TGI (MDA-MB-435) was > 100 µM, the TGI (DU-145 prostate) was > 100 µM and the TGI (COLO 205 colon) was 33 µM. The TGI (NCI-H226 lung) was 65.8 µM, the TGI (SK-OV-3 ovarian) was > 100 µM and the TGI (SK-MEL-5 melanoma) was 84.8 µM. For the same molecule, the TGI (OVCAR-3 ovarian) was 66 µM, the TGI (HCT-15 colon) was > 100 µM and the TGI (SF-539 CNS) was 99.4 µM. For the same molecule, the TGI (LOX IMVI melanoma) was 38 µM.
Molecule CCCCCCCCCC(=O)NC(CCC(=O)N(CCNC(=O)c1nc(-c2ccccc2)oc1-c1ccccc1)Cc1ccccc1)C(=O)O (stereo not drawn) has a TGI (RXF 393 renal) of 36.8 µM, a TGI (SN12C renal) of 37.6 µM and a TGI (SW-620 colon) of 41.8 µM. The TGI (RPMI-8226 leukemia) was 79 µM, the TGI (NCI-H23 lung) was 33.9 µM and the TGI (BT-549 breast) was 33.5 µM. For the same molecule, the TGI (KM12 colon) was 46.6 µM, the TGI (SF-268 CNS) was 34.6 µM and the TGI (MDA-MB-435) was 38.3 µM. The TGI (DU-145 prostate) was 43.7 µM, the TGI (COLO 205 colon) was 36.8 µM and the TGI (NCI-H226 lung) was 55.5 µM. The TGI (SK-OV-3 ovarian) was 30.7 µM, the TGI (SK-MEL-5 melanoma) was 29.7 µM and the TGI (OVCAR-3 ovarian) was 30.1 µM. The TGI (HCT-15 colon) was 29.6 µM, the TGI (SF-539 CNS) was 41.7 µM and the TGI (LOX IMVI melanoma) was 35.9 µM.
For CC(C)[C@@H]1CC[C@@H](C)C[C@H]1OC(=O)/C=C1\C(C(=O)O[C@@H]2C[C@H](C)CC[C@H]2C(C)C)[C@H]2C=C[C@@H]1O2 (stereo partly drawn), the TGI (RXF 393 renal) was > 100 µM, the TGI (SN12C renal) was > 100 µM and the TGI (SW-620 colon) was > 100 µM. For the same molecule, the TGI (RPMI-8226 leukemia) was > 100 µM, the TGI (NCI-H23 lung) was > 100 µM and the TGI (KM12 colon) was > 100 µM. For the same molecule, the TGI (HS 578T breast) was > 100 µM, the TGI (SF-268 CNS) was > 100 µM and the TGI (MDA-MB-435) was > 100 µM. The TGI (DU-145 prostate) was > 100 µM, the TGI (COLO 205 colon) was > 100 µM and the TGI (NCI-H226 lung) was > 100 µM. The TGI (SK-OV-3 ovarian) was > 100 µM, the TGI (SK-MEL-5 melanoma) was > 100 µM and the TGI (OVCAR-3 ovarian) was > 100 µM. The TGI (HCT-15 colon) was > 100 µM, the TGI (SF-539 CNS) was > 100 µM and the TGI (LOX IMVI melanoma) was > 100 µM.
For Cc1cc2c(nn1)CCc1c-2no[n+]1[O-], the TGI (RXF 393 renal) was > 100 µM, the TGI (SN12C renal) was > 100 µM and the TGI (SW-620 colon) was > 100 µM. The TGI (RPMI-8226 leukemia) was > 100 µM, the TGI (SK-MEL-2 melanoma) was > 100 µM and the TGI (NCI-H23 lung) was > 100 µM. The TGI (BT-549 breast) was > 100 µM, the TGI (KM12 colon) was > 100 µM and the TGI (HS 578T breast) was > 100 µM. The TGI (SF-268 CNS) was > 100 µM, the TGI (MDA-MB-435) was > 100 µM and the TGI (COLO 205 colon) was > 100 µM. For the same molecule, the TGI (NCI-H226 lung) was > 100 µM, the TGI (SK-OV-3 ovarian) was > 100 µM and the TGI (SK-MEL-5 melanoma) was > 100 µM. The TGI (OVCAR-3 ovarian) was > 100 µM, the TGI (HCT-15 colon) was > 100 µM and the TGI (SF-539 CNS) was > 100 µM. The TGI (LOX IMVI melanoma) was > 100 µM.
For CC(=O)NC1CC(C(C)(C)NC(C)=O)CC=C1C (stereo not drawn), the TGI (SN12C renal) was > 100 µM, the TGI (SW-620 colon) was > 100 µM and the TGI (NCI-H23 lung) was > 100 µM. For the same molecule, the TGI (BT-549 breast) was > 100 µM, the TGI (KM12 colon) was > 100 µM and the TGI (SF-268 CNS) was > 100 µM. For the same molecule, the TGI (MDA-MB-435) was > 100 µM, the TGI (DU-145 prostate) was > 100 µM and the TGI (COLO 205 colon) was > 100 µM. The TGI (SK-OV-3 ovarian) was > 100 µM, the TGI (SK-MEL-5 melanoma) was > 100 µM and the TGI (OVCAR-3 ovarian) was > 100 µM. The TGI (HCT-15 colon) was > 100 µM, the TGI (SF-539 CNS) was > 100 µM and the TGI (LOX IMVI melanoma) was > 100 µM.
